Data as given in patent publication US20220380371A1, “MLL1 INHIBITORS AND ANTI-CANCER AGENTS” (NOVARTIS AG, priority 2019, published 2022).
pIC50: −log10 of the molar value.

What was measured:
H3K4me3 in MV4-11 cells = test: MV4-11 H3K4me3 Cellular ELISA Assay; assay type: cell-based; conditions: Homo sapiens, MV4-11, 48 h
Procedure: MV4-11 H3K4me3 Cellular ELISA Assay
MV4-11 (ATCC® CRL-9591™) was cultured with RPMI1640 medium (Thermo Fisher Scientific, cat #11875) supplemented with 10% FBS (Thermo Fisher Scientific, cat #10099141) and 50 U/ml Penicillin-Streptomycin (Thermo Fisher Scientific, cat #10378016) in humidified incubator at 37° C., 5% CO2.
200 nL compounds dissolved in DMSO were serially diluted at 1:3 ratio for 12 points starting from 10 mM and dispensed into each wells of cell culture plates (PDL-coated ViewPlate-384 Black, FTC, PerkinElmer, #6007710). 3,750 MV4-11 cells in 40 μL culture medium were seeded into each well and treated with desired concentration for 48 hours. After treatment, wash cells with cold phosphate based buffer (PBS, pH 7.4) and aspirate the remaining PBS buffer. Crude histone lysate was extracted by 40 μL 0.5M HCl for 1 hour in 4° C. following neutralization by adding 32 μL neutralization buffer (0.5M Sodium phosphate dibasic, pH ˜12.5, 1.25 mM Dithiothreitol, Promega #V3151, Protease Inhibitor Cocktail, Sigma #8340) for each well. 5 μL and 20 μL of histone lysate was loaded to ELISA plate (384 Well Plates, PE HB, White, 6005620) for detection of total H3 and H3K4me3, respectively. Shake the plates gently in 4° C. for overnight. After histone binding, plates were washed with 80 μL PBS/T (PBS with 0.05% Tween-20) and blocked with 50 μL 3% BSA diluted in PBS/T per well for 1 hour. Incubate wells with primary antibody for 1 hour at room temperature using anti-H3K4me3 (CST #9727) and anti-total H3 (CST #9715) diluted 1:2000 in 3% BSA. Plates were then washed with PBS/T for 3 times and incubated with horseradish peroxidase (HRP) conjugated secondary antibody (CST #7074, 1:5000) for 1 hour at room temperature. The abundance of H3K4me3 and total H3 were measured by ECL substrates chemiluminescence (Pierce, #34080) on a plate reader (PerkinElmer EnVison 2104 Mutilable Reader). Percentage inhibition was calculated against DMSO control after normalization of H3K4me3 signal to H3 signal for individual samples. The data were then fit to a dose response curve using GraphPad Prism for IC50 calculation.

[1] = biological target: wild type MLL1 four-member complex (MLL1-4C) (Homo sapiens, UniProt Q03164); test: MLL1 LC-MS Assay; assay type: biochemical; conditions: read-out: LCMS
Procedure: The compounds of the present disclosure were serially and separately diluted 3-fold in DMSO to obtain a total of eight or twelve concentrations. Then the test compounds at each concentration (120 nL of each) were transferred by Mosquito into white Proxiplate plus 384-well microplate (PerkinElmer). Solutions (6 μL) of 60 nM wild type MLL1 four-member complex (MLL1-4C) and 5 μM SAM in the reaction buffer (20 mM Tris-HCl, pH 8.0, 0.01% Tween 20, 1 mM DTT, 10 mM MgCl2, 0.01% BSA) were added to the wells that were then incubated with the test compound for 20 min. A 6 μL solution of 20 μM of the peptide substrate H3K4me0 (histone H3[1-21]-Biotin) in the reaction buffer was added to initiate each reaction. The final components in the reaction solution include 30 nM MLL1-4C, 2.5 μM SAM, and 10 μM H3K4me0 with varying concentration of the compounds. A positive control consisted of 30 nM MLL1-4C, 2.5 μM SAM, and 10 μM substrate in the absence of the test compound, and a negative control consisted of 2.5 μM SAM, and 10 μM substrate only. Each reaction was incubated at rt for 120 min, then stopped by addition of 3 μL per of quench solution (2.5% TFA with 320 nM d4-SAH). The reaction mixture was centrifuged (Eppendorf centrifuge 5810, Rotor A-4-62) for 2 min at 2000 rpm. The SAH production from the enzymatic assays were monitored by LC-MS/MS on an API 4000 triple quadrupole mass spec with Turbolon Spray (Applied Biosystem) coupled with Prominenece UFLC (Shimazu). The level of SAH production were then normalized based on the values coming from the positive and negative controls to give percent enzyme activities. The data were then fit to a dose response equation using the program Helios (Novartis) to get the IC50 values of the test compounds.

MV4-11 cells = test: MV4-11 6-Day Cell Growth CTG (CellTiter-Glo) Assay; assay type: cell-based; conditions: Homo sapiens, MV4-11, 144 h, MV4-11 cell growth CellTiter-Glo, 6 days
Procedure: MV4-11 6-Day Cell Growth CTG (CellTiter-Glo) Assay
Acute myeloid leukemia cell MV4-11 (ATCC® CRL-9591™) was cultured with RPMI 1640 medium (Thermo Fisher Scientific, cat #11875) supplemented with 10% FBS (Thermo Fisher Scientific, cat #10099141) in humidified incubator at 37° C., 5% CO2. To assess the effect of MLL1 inhibition on cell growth, the compound of the present invention was dissolved in DMSO and serially diluted at 1:3 for 12 points starting from 10 mM then 200 nL for the replicate of each dose per well was dispensed to Viewplate-384 Black (Perkin Elmer). Exponentially growing MV4-11 cells were seeded at the density of 300 cells per well in 40 μL to the plate, so the final compound working concentration starts from 50 μM. After 6 days, 40 μL CellTiter-Glo (Promega, cat #G7573) was added into the cell culture well and luminescence was read with Envision (Perkin Elmer) to determine the viable cells. The percentage inhibition was calculated against the samples treated with DMSO only and the data were used for dose response curve fitting in GraphPad Prism to get the IC50 of representative compound of present invention, which reflects the inhibition of MLL1 activity.

pIC50 (H3K4me3 in MV4-11 cells)	pIC50 [1]	pIC50 (MV4-11 cells)	Compound
> 5.72	7.00 to 7.30	> 5.70	Nc1ncnc2c1ncn2Cc1c(N2CC[C@](N)(C(=O)NC3CC3)C2)ccc(F)c1CN1CCCCC1 [Example 46]
> 5.72	< 7.00	5.52 to 5.70	CN(Cc1c(F)ccc(N2CC[C@](N)(C(=O)NC3CC3)C2)c1Cn1cnc2c(N)ncnc21)C1CC1 [Example 48]
> 5.72	> 7.30	> 5.70	Nc1ncnc2c1ncn2Cc1c(N2CC[C@](N)(C(=O)NC3CC3)C2)ccc(F)c1CN1CC[C@@H](F)C1 [Example 50]
> 5.72	7.00 to 7.30	> 5.70	Nc1ncnc2c1ncn2Cc1c(N2CC[C@](N)(C(=O)NC3CC3)C2)ccc(F)c1CN1CC(F)C1 [Example 53]
> 5.72	< 7.00	> 5.70	Nc1ncnc2c1ncn2Cc1c(N2CC[C@](N)(C(=O)NC3CC3)C2)ccc(F)c1CNC1CC1 [Example 54]
> 5.72	7.00 to 7.30	> 5.70	Nc1ncnc2c1ncn2Cc1c(N2CC[C@](N)(C(=O)NC3CC3)C2)ccc(F)c1CN1CCC(F)CC1 [Example 56]
> 5.72	7.00 to 7.30	> 5.70	Nc1ncnc2c1ncn2Cc1c(N2CC[C@](N)(C(=O)NC3CC3)C2)ccc(F)c1CNCC(F)(F)F [Example 57]
> 5.72	7.00 to 7.30	> 5.70	Nc1ncnc2c1ncn2Cc1c(N2CC[C@](N)(C(=O)NC3CC3)C2)ccc(F)c1CN1C[C@H]2CC[C@@H](C1)O2 [Example 58]
> 5.72	> 7.30	> 5.70	CCN(Cc1c(F)ccc(N2CC[C@](N)(C(=O)NC3CC3)C2)c1Cn1cnc2c(N)ncnc21)C1CC1 [Example 59]
> 5.72	7.00 to 7.30	> 5.70	Nc1ncnc2c1ncn2Cc1c(N2CC[C@](N)(C(=O)NC3CC3)C2)ccc(F)c1CN1CCCC1 [Example 61]
> 5.72	7.00 to 7.30	> 5.70	CC1CN(Cc2c(F)ccc(N3CC[C@](N)(C(=O)NC4CC4)C3)c2Cn2cnc3c(N)ncnc32)C1 [Example 64]
> 5.72	> 7.30	> 5.70	Nc1ncnc2c1ncn2Cc1c(N2CC[C@](N)(C(=O)NC3CC3)C2)ccc(F)c1CN1CCC(F)(F)C1 [Example 66]
> 5.72	7.00 to 7.30	> 5.70	CCN(CC)Cc1c(F)ccc(N2CC[C@](N)(C(=O)NC3CC3)C2)c1Cn1cnc2c(N)ncnc21 [Example 67]
> 5.72	> 7.30	> 5.70	Nc1ncnc2c1ncn2Cc1c(N2CC[C@](N)(C(=O)NC3CC3)C2)ccc(F)c1CN1CC[C@H](F)C1 [Example 68]
> 5.72	7.00 to 7.30	5.52 to 5.70	Nc1ncnc2c1ncn2Cc1c(N2CC[C@](N)(C(=O)NC3CC3)C2)ccc(F)c1CO [Example 76, (R)-3-amino-1-(2-((6-amino-9H-purin-9-yl)methyl)-4-fluoro-3-(hydroxymethyl)phenyl)-N-cyclopropylpyrrolidine-3-carboxamide]
> 5.72	7.00 to 7.30	> 5.70	COCc1c(F)ccc(N2CC[C@](N)(C(=O)NC3CC3)C2)c1Cn1cnc2c(N)ncnc21 [Example 77, (R)-3-amino-1-(2-((6-amino-9H-purin-9-yl)methyl)-4-fluoro-3-(methoxymethyl)phenyl)-N-cyclopropylpyrrolidine-3-carboxamide]
> 5.72	7.00 to 7.30	> 5.70	[2H]C([2H])([2H])OCc1c(F)ccc(N2CC[C@](N)(C(=O)NC3CC3)C2)c1Cn1cnc2c(N)ncnc21 [Example 80]

Second part, the compound before the results:

Compound	pIC50 (H3K4me3 in MV4-11 cells)	pIC50 [1]	pIC50 (MV4-11 cells)
Nc1ncnc2c1ncn2Cc1c([C@@H](O)C(F)(F)F)cc(Cl)cc1N1CC[C@](N)(C(=O)NC2CC2)C1 [Example 33, (R)-3-amino-1-(2-((6-amino-9H-purin-9-yl)methyl)-5-chloro-3-((R)-2,2,2-trifluoro-1-hydroxyethyl)phenyl)-N-cyclopropylpyrrolidine-3-carboxamide]	5.52 to 5.72	7.00 to 7.30	< 5.52
Nc1ncnc2c1ncn2Cc1c(N2CC[C@](N)(C(=O)NC3CC3)C2)ccc(C(F)(F)F)c1Br [Example 41, (R)-3-amino-1-(2-((6-amino-9H-purin-9-yl)methyl)-3-bromo-4-(trifluoromethyl)phenyl)-N-cyclopropylpyrrolidine-3-carboxamide]	> 5.72	> 7.30	> 5.70
CN(C)Cc1c(C(F)(F)F)ccc(N2CC[C@](N)(C(=O)NC3CC3)C2)c1Cn1cnc2c(N)ncnc21 [Example 47]	> 5.72	> 7.30	> 5.70
CN(C)Cc1c(F)ccc(N2CC[C@](N)(C(=O)N[C@H]3C[C@@H]3c3ccccc3)C2)c1Cn1cnc2c(N)ncnc21 [Example 49]	> 5.72	> 7.30	> 5.70
Nc1ncnc2c1ncn2Cc1c(N2CC[C@](N)(C(=O)NC3CC3)C2)ccc(F)c1CN1CCC(F)(F)CC1 [Example 55]	> 5.72	7.00 to 7.30	> 5.70
CN(C)Cc1c(Cl)ccc(N2CC[C@](N)(C(=O)NC3CC3)C2)c1Cn1cnc2c(N)ncnc21 [Example 60]	> 5.72	7.00 to 7.30	> 5.70
CC1(C)CCN(Cc2c(F)ccc(N3CC[C@](N)(C(=O)NC4CC4)C3)c2Cn2cnc3c(N)ncnc32)C1 [Example 63]	> 5.72	< 7.00	> 5.70
Nc1ncnc2c1ncn2Cc1c(N2CC[C@](N)(C(=O)NC3CC3)C2)ccc(F)c1CN1CCCC(F)(F)C1 [Example 69]	> 5.72	7.00 to 7.30	> 5.70
CCc1c(Cl)cc(Cl)c(N2CC[C@](N)(C(=O)N3CCS(=O)(=O)CC3)C2)c1Cn1cnc2c(N)ncnc21 [Example 73]	> 5.72	< 7.00	> 5.70
COCc1c(Cl)ccc(N2CC[C@](N)(C(=O)NC3CC3)C2)c1Cn1cnc2c(N)ncnc21 [Example 78]	> 5.72	> 7.30	> 5.70
Nc1ncnc2c1ncn2Cc1c(N2CC[C@](N)(C(=O)NC3CC3)C2)ccc(Cl)c1COC1CCOC1 (stereo partly drawn) [Example 79]	> 5.72	7.00 to 7.30	> 5.70
[2H]C([2H])([2H])OCc1c(Cl)ccc(N2CC[C@](N)(C(=O)NC3CC3)C2)c1Cn1cnc2c(N)ncnc21 [Example 81]	> 5.72	> 7.30	> 5.70
